The values that follow come from patent EP1135374B9, “BENZIMIDAZOLE COMPOUNDS THAT ARE VITRONECTIN RECEPTOR ANTAGONISTS” (SCHERING CORPORATION, priority 1998, dated 2000).

Assay [1] addresses T1, αvβ3 receptor (purified from human placenta) (Homo sapiens, UniProt P05106+P06756).
T1 construct: αvβ3 receptor (purified from human placenta); from tissue; host or cells: human placenta
Nature of the assay: competition radioligand binding assay, 125I-echistatin to αvβ3 receptor. As to conditions: αvβ3, inhibition of specific 125I-echistatin binding. The protocol:
The following assay procedure, which is a competition radioligand binding assay, was carried out to determine the activity of the foregoing compounds as αvβ3 antagonists. The competitive assay procedure described in Kumar, et. al., "Biochemical Characterization Of The Binding Of Echistatin To Integrin αvβ3 Receptor", Journal Of Pharmacology And Experimental Therapeutics, Vol. 283, No. 2, pp. 843-853 (1997) was employed. Thus, binding of ^125I-echistatin (radiolabeled by the chloramine-T method to a specific activity of 2000 Ci/mmol (Amersham, Chicago, Il.)) to αvβ3 receptor (purified from human placenta), both prepared as described in Kumar, et al., was competed by the compounds prepared in the foregoing examples. Purified αvβ3 receptor was coated onto Microlite-2 plates at a concentration of 50 ng/well. ^125I-echistatin was added to the wells to a final concentration of 0.05 nM in binding buffer (50 µl/well) in the presence of the competing test compound. The competing test compounds were employed at serially diluted concentrations ranging from 1 pM to 100 nM. After a 3 hour incubation at room temperature, the wells were washed, and radioactivity, reflecting binding by ^125 I-echistatin to αvβ3 receptors, was determined with Top Count (Packard). Each data point is an average of values from triplicate wells.
Specific binding of ^125I-echistatin was calculated as the difference between the amount of ^125I-echistatin bound in the absence (total binding) and the amount of ^125I-echistatin bound in the presence of a 200-fold molar excess of unlabeled echistatin (nonspecific binding). The efficacy of the test compounds for inhibiting specific binding of ^125I-echistatin to αvβ3 receptors was determined by plotting a graph of specific binding (y-axis) as a function of test compound concentration (x-axis). The concentration of test compound required to inhibit 50% of the specific binding (IC50) was determined from the plot. The IC50 may be directly converted mathematically to Ki, which is a measure of the receptor binding affinity of the compounds under the defined assay conditions.

Assay [2] addresses purified αllbβ3 receptor (Homo sapiens, UniProt P05106+P08514). Nature of the assay: similar competitive binding assay with 125I-echistatin on αllbβ3 receptor, used for the specificity index. The following applies: specificity index IC50 αllbβ3/ IC50 αvβ3. As for the experimental part:
To measure the relative affinity of the test compounds for αvβ3 receptors versus affinity for αllbβ3 receptors, similar competitive assays were carried out using purified αllbβ3 receptor and ^125I-echistatin (iodinated using the lactoperoxidase method). The specificity index, which is a measure of the relative binding affinity for αvβ3, versus αllbβ3, may be determined by dividing the IC50 value for αllbβ3 by the IC50 value for αvβ3.

One may read the IC50 as the concentration at which inhibition is half-maximal. In assay [1] (Table 10), `CC(C)(C)NC(=O)N(Cc1ccc(C(=O)NC[C@H](NC(=O)OCc2ccccc2)C(=O)O)cc1)Cc1nc2ccccc2[nH]1` [Example 5-34] registered an IC50 of 2.3 nM. Moreover, the “SPECIFICITY αIIbβ3 / αvβ3” value in assay [2] (Table 10) was found to be 421.

For `CCCCOC(=O)N[C@@H](CNC(=O)c1ccc(CN(Cc2nc3ccccc3[nH]2)C(=O)NCC(=O)O)cc1)C(=O)O` [Example 5-97, N^3-[4-[(Benzimidazol-2-yl)methyl][[(carboxymethyl)amino]carbonyl]aminomethylbenzoyl]-N^2-(n-butoxycarbonyl)-L-2,3-diaminopropionic acid], in assay [1] (Table 16), the IC50 is 4.3 nM. In assay [2] (Table 16), the “Specificity αllbβ3 / αvβ3” value is 2600.

In assay [1] (Table 16), `CCCCOC(=O)N[C@@H](CNC(=O)c1ccc(CN(Cc2nc3ccccc3[nH]2)C(=O)N[C@@H](C)C(=O)OCC)cc1)C(=O)O` [Example 5-89] returned an IC50 of 3.3 nM. Also, in assay [2] (Table 16), the “Specificity αllbβ3 / αvβ3” value was 1094.

In the case of `CCCNC(=O)N(Cc1ccc(C(=O)NC[C@H](NC(=O)OCc2ccccc2)C(=O)O)cc1)Cc1nc2ccccc2[nH]1` [Example 5-39], in assay [1] (Table 10), the IC50 was 3.1 nM. The “SPECIFICITY αIIbβ3 / αvβ3” value in assay [2] (Table 10) was determined as 223.

The compound `CC(C)(C)OC(=O)N[C@@H](CNC(=O)c1ccc(CNCc2nc3ccccc3[nH]2)cc1)C(=O)O` [Example 5-60] registered an IC50 in assay [1] (Table 12) of 25 nM. The “Specificity αllbβ3 / αvβ3” value in assay [2] (Table 12) came to 90.

Take `O=C(N[C@@H](CNC(=O)c1ccc(CN(Cc2nc3ccccc3[nH]2)C(=O)C2CC2c2ccccc2)cc1)C(=O)O)OCc1ccccc1` (stereo partly shown) [Example 5-22]: the IC50 in assay [1] (Table 10) worked out at 6.4 nM. For the same compound, the “SPECIFICITY αIIbβ3 / αvβ3” value in assay [2] (Table 10) is reported as 26.

Turning to `CC(c1nc2ccccc2[nH]1)N(Cc1ccc(C(=O)NC[C@H](NC(=O)OCc2ccccc2)C(=O)O)cc1)C(=O)CCC1CCCC1` (stereo partly shown) [Example 5-79], the IC50 in assay [1] (Table 15) stood at 33 nM. Besides, the “SPECIFICITY αIIbβ3 / αvβ3” value in assay [2] (Table 15) is 19.0.

For the compound `CCCCOC(=O)N[C@@H](CNC(=O)c1ccc(CN(Cc2nc3ccccc3[nH]2)C(=O)Nc2ccccc2)cc1)C(=O)O` [Example 5-83], in assay [1] (Table 16), the IC50 is 1.8 nM. In addition, in assay [2] (Table 16), the “Specificity αllbβ3 / αvβ3” value turned out to be 1689.

Regarding `O=C(N[C@@H](CNC(=O)c1ccc(CN(Cc2nc3ccccc3[nH]2)C(=S)NCCc2ccccc2)cc1)C(=O)O)OCc1ccccc1` [Example 5-31], in assay [1] (Table 10), the IC50 was 6 nM. For the same compound, in assay [2] (Table 10), the “SPECIFICITY αIIbβ3 / αvβ3” value was determined as 80.

In assay [1] (Table 14), `O=C(NC(CNC(=O)c1ccc(CN(CCc2nc3ccccc3[nH]2)C(=O)CCC2CCCC2)cc1)C(=O)O)OCc1ccccc1` (stereo not shown) [Example 5-74] returned an IC50 of 238 nM. For the same compound, the “Specificity αIIβ3 / αvβ3” value in assay [2] (Table 14) came out at 0.6.

The compound `CCOC(=O)[C@H](C)NC(=O)N(Cc1ccc(C(=O)NC[C@H](NC(=O)OCc2ccccc2)C(=O)O)cc1)Cc1nc2ccccc2[nH]1` [Example 5-50] came in with an IC50 in assay [1] (Table 10) of 3 nM. For the same compound, the “SPECIFICITY αIIbβ3 / αvβ3” value in assay [2] (Table 10) is 805.

`CC(C)NC(=O)N(Cc1ccc(C(=O)NC[C@H](NC(=O)OCc2ccccc2)C(=O)O)cc1)Cc1nc2cc(Cl)ccc2[nH]1` [Example 5-95] displayed an IC50 in assay [1] (Table 16) of 1.7 nM. In addition, in assay [2] (Table 16), the “Specificity αllbβ3 / αvβ3” value was found to be 775.

Consider `O=C(N[C@@H](CNC(=O)c1ccc(CN(Cc2nc3ccccc3[nH]2)C(=O)Nc2ccc(-c3ccccc3)cc2)cc1)C(=O)O)OCc1ccccc1` [Example 5-38], for which the IC50 in assay [1] (Table 10) worked out at 13.6 nM. Also, the “SPECIFICITY αIIbβ3 / αvβ3” value in assay [2] (Table 10) worked out at 49.

On to `CCCCOC(=O)N[C@@H](CNC(=O)c1ccc(CN(Cc2nc3ccccc3[nH]2)C(=O)N[C@@H](CCSC)C(=O)OCC)cc1)C(=O)O` [Example 5-87], for which the IC50 in assay [1] (Table 16) amounted to 2 nM. For the same compound, in assay [2] (Table 16), the “Specificity αllbβ3 / αvβ3” value is on record as 1569.

`O=C(N[C@@H](CNC(=O)c1ccc(CN(Cc2nc3ccccc3[nH]2)C(=O)NCc2ccccc2)cc1)C(=O)O)OCc1ccccc1` [Example 5-29]: the IC50 in assay [1] (Table 10) turned out to be 4.3 nM. In assay [2] (Table 10), the “SPECIFICITY αIIbβ3 / αvβ3” value is reported as 144.

For the compound `CCCCOC(=O)N[C@@H](CNC(=O)c1ccc(CN(Cc2nc3ccccc3[nH]2)C(=O)N[C@H](C(=O)OCC)C(C)C)cc1)C(=O)O` [Example 5-90], the IC50 in assay [1] (Table 16) was found to be 2.6 nM. Further, in assay [2] (Table 16), the “Specificity αllbβ3 / αvβ3” value was 1697.

For `O=C(N[C@@H](CNC(=O)c1ccc(CN(Cc2nc3ccccc3[nH]2)C(=O)NC2CCCCC2)cc1)C(=O)O)OCc1ccccc1` [Example 5-28], in assay [1] (Table 10), the IC50 stood at 0.65 nM. Also, the “SPECIFICITY αIIbβ3 / αvβ3” value in assay [2] (Table 10) worked out at 1136.
